Measurements: patent US4556715A, “Nicotinic acid derivatives” (Kyorin Pharmaceutical Co., Ltd., priority 1980, dated 1985)
Read-outs that look alike come from different tables or passages of the source.

Columns and labels:
[1] = in vivo; conditions: mouse, po, p o, male ICR mice
Description: The present compounds were given to 6 week-old male mice of the ICR strain and their acute toxicity was examined.

[2] = system: serum and liver lipid levels in rats; assay: Serum and liver lipid levels and relative liver weight in rats (100 mg/kg, 10 days); format: in vivo, Male rats of the Wistar strain; conditions: for response vs control in vivo at 100 mg/kg: Rattus norvegicus, po; for response vs control in vivo at 100 mg/kg / Relative liver weight, relative to Control (100): in parentheses, Control = (100); for Liver lipid levels Ch / Liver lipid levels PL / Liver lipid levels TG / Relative liver weight / Serum lipid levels Ch / Serum lipid levels PL / Serum lipid levels TG: 100 mg/kg p.o. 10 days, Mean ± S.E. (n = 9)
Experimental: (2) Male rats of the Wistar strain weighing 160-180 g were fed a stock deit (CE-2, Japan CLEA, Tokyo) and water ad libitum. The present compounds and KCD-232 were suspended, respectively, in a 0.5% of CMC solution and give orally to rats once a day at a dose of 100 mg/kg b.w. for 10 days.
Control rats were received the 0.5% CMC solution alone. The diet was withdrawn immediately after the last administration of compounds. Animals were sacrificed by decapitation 4 hr after the last administration and blood was collected, clotted and centrifuged to obtain serum. The liver was excised quickly and weighed. Total lipids were extracted from the serum and liver, and the levels of Ch, TG and PL were determined colorimetrically.

[3] = system: serum and liver lipid levels in rats; assay: Serum and liver lipid levels and relative liver weight in rats (25 mg/kg, 10 days); format: in vivo, male Wistar rats; conditions: Table 4; for Liver lipid levels Ch / Liver lipid levels PL / Liver lipid levels TG / Relative liver weight / Serum lipid levels Ch / Serum lipid levels PL / Serum lipid levels TG: 25 mg/kg p.o. 10 days, Mean ± S.E. (n = 7); for Liver lipid levels Ch, relative to Control (100) / Liver lipid levels PL, relative to Control (100) / Liver lipid levels TG, relative to Control (100) / Relative liver weight, relative to Control (100) / Serum lipid levels Ch, relative to Control (100) / Serum lipid levels PL, relative to Control (100) / Serum lipid levels TG, relative to Control (100): in parentheses
Experimental: (3) The present compounds and KCD-232 were orally given to male Wistar rats weighing 160-180 g once a day at a dose of 25 mg/kg b.w. for 10 days. Rats were subjected to fast for 4 hr immediately after the last administration of compounds, thereafter they were sacrificed by decapitation and blood was collected, clotted and centrifuged to obtain serum. The liver was removed quickly and weighed. Total lipids were extracted from the serum and liver, and then the levels of total Ch, TG and PL were determined with colorimetric methods.

[4] = system: serum and liver lipid levels in normal rats; assay: Effects on relative liver weight, serum and liver lipid levels in normal rats (100 mg/kg, 7 days); format: in vivo, Male Wistar strain rats
Experimental: (1) Effects on relative liver weight, serum and liver lipid levels in normal rats
Male Wistar strain rats, weighing 180-210 g were orally administered the present compounds (X=Cl, n1 =2, 3, 4 and n2 =1) and 4-(4-chlorobenzyloxy)benzyl nicotinate (KCD-232), being X=Cl, n1 =1, n2 =1, respectively, which were suspended in 0.5% carboxymethyl cellulose (CMC) solution once a day at a dose of 100 mg/kg b.w. for 7 days. The last administration was occured in rats fasted overnight. At 4 hr later blood was withdrawn from jugular vein, clotted and centrifuged to obtain serum. The liver was rapidly removed and weighed. Total lipids were extracted from the serum and liver, and cholesterol (Ch), triglycerides (TG) and phospholipids (PL) levels were determined.

[5] = 240 h, Table 3, read-out: Liver lipid levels PL, relative to Control (100)
[6] = Table 3, read-out: Liver lipid levels Ch, relative to Control (100)
[7] = Table 3, read-out: Liver lipid levels TG, relative to Control (100)
[8] = Table 3, read-out: Serum lipid levels Ch, relative to Control (100)
[9] = Table 3, read-out: Serum lipid levels PL, relative to Control (100)
[10] = Table 3, read-out: Serum lipid levels TG, relative to Control (100)
[11] = Table 1, 100 mg/kg p.o. 7 days, fasted overnight, mean ± S.E. (n = 6)
[12] = Table 1, in parentheses, Control = (100)
[13] = 240 h, Table 2, read-out: Liver lipid levels PL, relative to Control (100)
[14] = Table 2, read-out: Liver lipid levels Ch, relative to Control (100)
[15] = Table 2, read-out: Liver lipid levels TG, relative to Control (100)
[16] = Table 2, read-out: Serum lipid levels Ch, relative to Control (100)
[17] = Table 2, read-out: Serum lipid levels PL, relative to Control (100)
[18] = Table 2, read-out: Serum lipid levels TG, relative to Control (100)

## O=C(OCCCc1ccc(OCc2ccc(Cl)cc2)cc1)c1cccnc1 [n1=1, n2=3, 3-[4-(4-Chlorobenzyloxy)phenyl]propyl nicotinate]
[1]
  LD50: > 4000 mg/kg
[2]; [5]
  response vs control in vivo at 100 mg/kg: 96.1%
[2]; [6]
  response vs control in vivo at 100 mg/kg: 97.8%
[2]; [7]
  response vs control in vivo at 100 mg/kg: 73%
[2]; [8]
  response vs control in vivo at 100 mg/kg: 83.7%
[2]; [9]
  response vs control in vivo at 100 mg/kg: 79.4%
[2]; [10]
  response vs control in vivo at 100 mg/kg: 63.3%
[2]; Table 3
  Liver lipid levels Ch: 2.27 ± 0.09 mg/g liver
  Liver lipid levels PL: 34.8 ± 0.5 mg/g liver
  Liver lipid levels TG: 5.24 ± 0.40 mg/g liver
  Relative liver weight: 3.70 ± 0.05 g/100 g b.w.
  Serum lipid levels Ch: 81.7 ± 2.7 mg/dL
  Serum lipid levels PL: 124 ± 5.5 mg/dL
  Serum lipid levels TG: 79.5 ± 10.4 mg/dL
  Relative liver weight, relative to Control (100): 98
[3]
  Liver lipid levels Ch: 3.23 ± 0.17 mg/g liver
  Liver lipid levels PL: 38.2 ± 0.5 mg/g liver
  Liver lipid levels TG: 3.80 ± 0.50 mg/g liver
  Relative liver weight: 3.53 ± 0.08 g/100 g b.w.
  Serum lipid levels Ch: 66.4 ± 5.3 mg/dL
  Serum lipid levels PL: 85.8 ± 4.8 mg/dL
  Serum lipid levels TG: 29.2 ± 1.7 mg/dL
  Liver lipid levels Ch, relative to Control (100): 99.4
  Liver lipid levels PL, relative to Control (100): 100.5
  Liver lipid levels TG, relative to Control (100): 51.1
  Relative liver weight, relative to Control (100): 100
  Serum lipid levels Ch, relative to Control (100): 84.7
  Serum lipid levels PL, relative to Control (100): 79.3
  Serum lipid levels TG, relative to Control (100): 77.2

## O=C(OCCCCCCc1ccc(OCc2ccc(Cl)cc2)cc1)c1cccnc1 [n1=1, n2=6, 6-[4-(4-Chlorobenzyloxy)phenyl]hexyl nicotinate]
[1]
  LD50: > 4000 mg/kg
[2]; [5]
  response vs control in vivo at 100 mg/kg: 106%
[2]; [6]
  response vs control in vivo at 100 mg/kg: 107%
[2]; [7]
  response vs control in vivo at 100 mg/kg: 83.7%
[2]; [8]
  response vs control in vivo at 100 mg/kg: 75.3%
[2]; [9]
  response vs control in vivo at 100 mg/kg: 68.9%
[2]; [10]
  response vs control in vivo at 100 mg/kg: 32.1%
[2]; Table 3
  Liver lipid levels Ch: 2.48 ± 0.10 mg/g liver
  Liver lipid levels PL: 38.5 ± 0.7 mg/g liver
  Liver lipid levels TG: 6.01 ± 0.76 mg/g liver
  Relative liver weight: 3.72 ± 0.06 g/100 g b.w.
  Serum lipid levels Ch: 73.5 ± 2.3 mg/dL
  Serum lipid levels PL: 107 ± 3.1 mg/dL
  Serum lipid levels TG: 40.3 ± 3.5 mg/dL
  Relative liver weight, relative to Control (100): 98
[3]
  Liver lipid levels Ch: 2.83 ± 0.18 mg/g liver
  Liver lipid levels PL: 38.8 ± 1.1 mg/g liver
  Liver lipid levels TG: 5.48 ± 0.93 mg/g liver
  Relative liver weight: 3.91 ± 0.09 g/100 g b.w.
  Serum lipid levels Ch: 70 ± 5.5 mg/dL
  Serum lipid levels PL: 100 ± 5.9 mg/dL
  Serum lipid levels TG: 33.5 ± 2.5 mg/dL
  Liver lipid levels Ch, relative to Control (100): 87.1
  Liver lipid levels PL, relative to Control (100): 102.1
  Liver lipid levels TG, relative to Control (100): 73.7
  Relative liver weight, relative to Control (100): 111
  Serum lipid levels Ch, relative to Control (100): 89.3
  Serum lipid levels PL, relative to Control (100): 92.5
  Serum lipid levels TG, relative to Control (100): 88.6

## O=C(OCc1ccc(OCCc2ccc(Cl)cc2)cc1)c1cccnc1 [n1=2, n2=1, 4-[2-(4-Chlorophenyl)ethoxy]benzyl nicotinate]
[4]; 100 mg/kg p.o. 7 days, compared with control
  serum Ch, TG and PL (in words): significantly reduced serum Ch, TG and PL
[4]; [11]
  Liver lipid levels Ch: 3.78 ± 0.10 mg/g liver
  Liver lipid levels PL: 37.2 ± 1.5 mg/g liver
  Liver lipid levels TG: 11.49 ± 1.65 mg/g liver
  Serum lipid levels Ch: 53.5 ± 2.2 mg/dL
  Serum lipid levels PL: 69 ± 2.7 mg/dL
  Serum lipid levels TG: 22.4 ± 4.3 mg/dL
[4]; Table 1, 100 mg/kg p.o. 7 days, mean ± S.E. (n = 6)
  Relative liver weight: 3.17 ± 0.10 g/100 g b.w.
[4]; [12]
  Liver lipid levels Ch, relative to Control (100): 107
  Liver lipid levels PL, relative to Control (100): 101
  Liver lipid levels TG, relative to Control (100): 156
  Relative liver weight, relative to Control (100): 103
  Serum lipid levels Ch, relative to Control (100): 70
  Serum lipid levels PL, relative to Control (100): 68
  Serum lipid levels TG, relative to Control (100): 66
[2]; [13]
  response vs control in vivo at 100 mg/kg: 102%
[2]; [14]
  response vs control in vivo at 100 mg/kg: 96.7%
[2]; [15]
  response vs control in vivo at 100 mg/kg: 87%
[2]; [16]
  response vs control in vivo at 100 mg/kg: 76.7%
[2]; [17]
  response vs control in vivo at 100 mg/kg: 74%
[2]; [18]
  response vs control in vivo at 100 mg/kg: 44%
[2]; Table 2
  Liver lipid levels Ch: 2.94 ± 0.07 mg/g liver
  Liver lipid levels PL: 39.0 ± 0.7 mg/g liver
  Liver lipid levels TG: 5.50 ± 0.59 mg/g liver
  Relative liver weight: 3.98 ± 0.06 g/100 g b.w.
  Serum lipid levels Ch: 66.5 ± 2.2 mg/dL
  Serum lipid levels PL: 110 ± 3.7 mg/dL
  Serum lipid levels TG: 54.4 ± 5 mg/dL
  Relative liver weight, relative to Control (100): 103

## O=C(OCc1ccc(OCCCCCCc2ccc(Cl)cc2)cc1)c1cccnc1 [n1=6, n2=1, 4-[6-(4-Chlorophenyl)hexyloxy]benzyl nicotinate]
[1]
  LD50: > 4000 mg/kg
[2]; [13]
  response vs control in vivo at 100 mg/kg: 109%
[2]; [14]
  response vs control in vivo at 100 mg/kg: 94.4%
[2]; [15]
  response vs control in vivo at 100 mg/kg: 73.9%
[2]; [16]
  response vs control in vivo at 100 mg/kg: 74.6%
[2]; [17]
  response vs control in vivo at 100 mg/kg: 65.9%
[2]; [18]
  response vs control in vivo at 100 mg/kg: 25.6%
[2]; Table 2
  Liver lipid levels Ch: 2.87 ± 0.08 mg/g liver
  Liver lipid levels PL: 41.6 ± 0.5 mg/g liver
  Liver lipid levels TG: 4.67 ± 0.32 mg/g liver
  Relative liver weight: 4.17 ± 0.07 g/100 g b.w.
  Serum lipid levels Ch: 64.7 ± 3 mg/dL
  Serum lipid levels PL: 97.8 ± 3.8 mg/dL
  Serum lipid levels TG: 31.7 ± 2.8 mg/dL
  Relative liver weight, relative to Control (100): 108
[3]
  Liver lipid levels Ch: 3.14 ± 0.17 mg/g liver
  Liver lipid levels PL: 38.9 ± 0.8 mg/g liver
  Liver lipid levels TG: 3.03 ± 0.41 mg/g liver
  Relative liver weight: 3.91 ± 0.08 g/100 g b.w.
  Serum lipid levels Ch: 54.2 ± 4.9 mg/dL
  Serum lipid levels PL: 72.2 ± 5.6 mg/dL
  Serum lipid levels TG: 24 ± 2.1 mg/dL
  Liver lipid levels Ch, relative to Control (100): 96.7
  Liver lipid levels PL, relative to Control (100): 102.4
  Liver lipid levels TG, relative to Control (100): 40.7
  Relative liver weight, relative to Control (100): 111
  Serum lipid levels Ch, relative to Control (100): 69.1
  Serum lipid levels PL, relative to Control (100): 66.7
  Serum lipid levels TG, relative to Control (100): 63.5
